Experimental data taken from patent US9994915B2, “miR-211 expression and related pathways in human melanoma” (Sanford-Burnham Medical Research Institute, priority 2010, dated 2018).

Key:
Format in all cases: cell-based, human
[1] = system: miR-211 expression; experiment: qPCR of miR-211 expression under simulated hypoxia in melanocytes; settings: DFO-simulated hypoxia
Protocol: (§1) The effect of hypoxia on miR-211 expression was investigated under simulated (DFO) and actual hypoxic conditions in both melanocytes and SKMEL-28 cells. miRNA-211 expression was determined by qPCR.

[2] = system: WM1552C cells; experiment: cell counts after DFO (simulated hypoxia), WM1552C and WM1552C/211
Protocol: (§2) A375 cells and WM1552C, both wild-type and miR-211-expressing, were subjected to treatment with 0, 250 nM, or 400 nM defroxamine (DFO) to simulate hypoxic conditions in order to determine whether miR-211 expression is capable of being regulated by changes in O2 concentrations. Cell counts were performed for each treatment group.
(§3) Relative to untreated cells, survival was about 45% following 250 nM DFO and about 25% following 400 nM DFO. The presence of miR-211 in these cells caused this effect to be greatly exacerbated, reducing survival to about 13% at 250 nM DFO and about 8% at 400 nM DFO. Similarly, for WM1552C cells, survival was about 77% at 250 nM DFO and about 55% at 400 nM DFO, compared to untreated cells (FIG. 21).

[3] = system: miR-211 expression; experiment: qPCR of miR-211 expression under simulated hypoxia in SKMEL-28 cells; settings: DFO-simulated hypoxia
Protocol: as §1

[4] = system: A375 cells; experiment: cell counts after DFO (simulated hypoxia), A375 and A375/211
Protocol: as §2, §3

[5] = system: SKMEL-28 cells; experiment: cell counts after DFO with or without miR-211 inhibitor, SKMEL-28
Protocol: SKMEL-28 cells, were subjected to the same DFO or hypoxic conditions as described above either in the presence or absence of an miR-211 inhibitor (has-miR-211 Anti-miR™ miRNA Inhibitor, Ambion, catalog numberAM17000, ID AM10168). […] The survival of SKMEL-28 cells was about 64% at 250 nM DFO and about 50% 400 nM DFO, compared to untreated cells. […] The survival of the SKMEL-28 cells treated with the miR-211 inhibitor was about 85% at 250 nM DFO and about 70% at 400 nM DFO.

[6] = system: IGFBP5 mRNA; experiment: Next Gen sequencing of IGFBP5 mRNA in WM1552C cells
Protocol: To extend the findings of the MITF knock-down study and to further establish IGFBP5 as a miR-211 target, the effect of miR-211 expression on IGFBP5 mRNA was determined. WM1552C cells were transfected with either an empty vector or the vector encoding and expressing miR-211. Additionally, untransfected WM1552C cells were treated with 5-Aza-2′deoxycytidine (“5-Aza”) to investigate whether miR-211 down-regulates IGFBP5 mRNA production through a genomic methylation mechanism.

Row | Compound | miR-211 expression [1] | survival compared to untreated cells ([2]; WM1552C cells, 250 nM DFO) | survival compared to untreated cells ([2]; WM1552C cells, 400 nM DFO) | survival compared to untreated cells ([2]; WM1552C/211 (miR-211-expressing) cells, 250 nM DFO) | survival compared to untreated cells ([2]; WM1552C/211 (miR-211-expressing) cells, 400 nM DFO) | miR-211 expression [3] | survival relative to untreated cells ([4]; A375/211 (miR-211-expressing) cells, 250 nM DFO) | survival relative to untreated cells ([4]; A375/211 (miR-211-expressing) cells, 400 nM DFO) | survival relative to untreated cells ([4]; A375 cells, 250 nM DFO) | survival relative to untreated cells ([4]; A375 cells, 400 nM DFO) | cell death ([4]; miR-211-expressing melanoma cells treated with hypoxia mimetic agent) | survival compared to untreated cells ([5]; 250 nM DFO) | survival compared to untreated cells ([5]; 400 nM DFO) | IGFBP5 mRNA expression [6]
1 | CC(=O)N(O)CCCCCNC(=O)CCC(=O)N(O)CCCCCNC(=O)CCC(=O)N(O)CCCCCN [DFO, defroxamine] | increases in a dose-dependent manner | about 77% | about 55% | about 40% | about 21% | neither simulated nor actual hypoxic conditions had a significant effect | about 13% | about 8% | about 45% | about 25% | increased cell death | about 64% | about 50% | –
2 | Nc1ncn([C@H]2C[C@H](O)[C@@H](CO)O2)c(=O)n1 [5-Aza, 5-Aza-2′deoxycytidine, reference compound] | – | – | – | – | – | – | – | – | – | – | – | – | – | no effect
